Assays:
[1] = tested on: ISG54 promoter activity in HEK293T cells; assay: ISG54 promoter luciferase reporter in HEK293T cells; type: cell-based, human
Experimental: FIG. 5. BRD4 is required for ISG transcription. (A) HeLa cells were either left untreated or treated with IFN-α for 1 h in presence or absence of JQ-1 or HMBA. Using primers spanning intron-exon junctions, nuclear pre-mRNA for ISG54 and γ-actin were quantified by real-time RT-PCR and normalized to GAPDH mRNA. (B) Control and BRD4 KD cells were either left untreated or treated with IFN-α. ISG56 and BRD4 mRNA were quantified using real-time RT-PCR and normalized to GAPDH mRNA abundance. (C) HEK293T cells were transfected with pcDNA3 (Ctl) or Brd4 expression constructs along with a luciferase reporter driven by the ISG54 promoter. […] Nuclear proteins were extracted as a soluble fraction and a chromatin bound fraction and analyzed by western blotting using anti-BRD4, H4-AcK5 and actin antibodies. […] (F) ChIP assays were performed with antibodies against BRD4 and recovered ISG56, Mx1 and IRF9 TSS spanning sequences were quantified by real-time PCR, normalized to input, and represented as fold enrichment over the untreated sample.
It has been shown that BRD4 coordinates the recruitment of P-TEFb to regulate transcription of target genes, including ISGs. […] In order to focus on transcriptional events, we again monitored induction of ISG unspliced pre-mRNA. […]
Nuclear extracts were prepared and analyzed by immunoblotting as follows. […]

[2] = tested on: BRD4 recruitment sites; assay: Global ChIP-Seq for BRD4 recruitment; type: cell-based, human; settings: combined IFN and TSA treatment
Experimental: To directly assess the effect of IFN and HDAC inhibition on BRD4 recruitment, we assayed the presence of BRD4 at ISG promoters by ChIP. BRD4 was recruited to three typical ISG promoters after 1 h of IFN stimulation. Importantly, this recruitment was abrogated by TSA, and, by JQ-1 (FIG. 5F). We also performed global ChIP-Seq for BRD4 recruitment.
ChIP-Seq libraries were made using the KAPA Hyper Prep kit (Roche, KK8504) using 25 ng of DNA per sample, according to the manufacturer's protocol for end repair and A-tailing. For adapter ligation, 8-nt multiplexing IDT (Integrated DNA Technologies) adapters (5 μM) were used. […] Libraries were sequenced on an Illumina HiSeq 4000 instrument, using a single read 50 protocol; 8 samples were pooled in one lane of a high output single read flow cell. […]
ChIP-Seq data analysis was carried out using the HiC-Bench pipeline (Lazaris et al., 2017, BMC Genomics 18:22). GenomicTools (Tsirigos et al., 2012, Bioinformatics 28:282-283), SAMtools (Li et al., 2009, Bioinformatics 25:2078-2079), DeepTools (Ramirez et al., 2016, Nucleic Acids Res. 44:W160-165), BEDTools (Quinlan and Hall, 2010, Bioinformatics 26:841-842), BigBed Tools (Kent et al., 2010, Bioinformatics 26:2204-2207), Picard Tools (https://broadinstitute.github.io/picard/), and R (https://www.R-project.org/) were used to analyze the sequenced reads and to check the quality of alignment. […]

CC(/C=C/C(=O)NO)=C\[C@@H](C)C(=O)c1ccc(N(C)C)cc1 [TSA, Trichostatin A]
IFN-driven ISG54 promoter activity (luciferase) ([1]; HEK293T cells): completely suppressed
Brd4-driven ISG54 promoter expression (luciferase) ([1]; HEK293T cells overexpressing Brd4, with or without TSA and IFN): No significant differences
sites of IFN-dependent BRD4 recruitment (366 detected) abrogated [2]: all by 4 of which were abrogated

— US20190351012A1, “TARGETING OF INTERFERON-STIMULATED GENE EXPRESSION TO TREAT INTERFERONOPATHIES” (New York University, priority 2018, published 2019)
